This passage reports IC50 results from patent US20100113549A1, “PYRROLIDINE COMPOUNDS” (ISIS INNOVATION LTD., priority 2004, published 2010).

Read-outs that look alike come from different tables or passages of the source.

Assay [1] deals with T1, glucosylceramide synthase (GCS) (Homo sapiens, UniProt Q16739).
T1 construct: assay was conducted using HL-60 cell microsomes as described in the literature; endogenous in cells; host or cells: HL-60 cell microsomes
T1 sequence (Q16739 1-394): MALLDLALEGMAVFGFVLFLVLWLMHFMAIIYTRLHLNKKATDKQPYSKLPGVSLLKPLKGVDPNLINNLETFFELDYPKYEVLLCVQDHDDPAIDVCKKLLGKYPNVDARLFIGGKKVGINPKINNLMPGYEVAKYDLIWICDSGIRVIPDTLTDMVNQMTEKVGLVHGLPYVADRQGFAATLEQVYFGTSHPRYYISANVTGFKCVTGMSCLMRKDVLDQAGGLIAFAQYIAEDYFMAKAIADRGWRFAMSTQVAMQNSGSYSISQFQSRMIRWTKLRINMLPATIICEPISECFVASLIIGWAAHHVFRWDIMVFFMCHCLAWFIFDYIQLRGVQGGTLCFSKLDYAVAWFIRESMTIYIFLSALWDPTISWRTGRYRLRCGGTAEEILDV
Description: Glucosylceramide synthase assay using HL-60 cell microsomes. Format: biochemical. As to conditions: read-out: IC50 as GCS inhibitors. On the procedure: Glucosylceramide synthase [UDP-glucose N-acyl-sphingosine glucosyltransferase (EC 2.4.1.80)] assay was conducted using HL-60 cell microsomes as described in the literature.^iv
All inhibitors were screened at a concentration of 100 μM against glycosidases and 50 μM against glucosylceramide synthase; all assays were recorded in duplicate.

Assay [2] concerns bovine diarrhoea virus (BVDV). Conditions: MOI=0.1, literature (ref 16); read-out: IC50 against BVDV; cited from earlier work.
Assay [3] relates to bovine diarrhoea virus (BVDV). The assay is described as follows: BVDV antiviral assay in MDBK cells, plaque assay of secreted virus. The assay is classed as cell-based. Conditions: Bovine viral diarrhea virus isolates and strains; MOI=0.5, MDBK cells; read-out: IC50 against BVDV. As for the experimental part:
Madin-Darby bovine kidney cells (MDBK) were grown in DMEM/F12 (purchased from Gibco BRL) supplemented with 10% heat-inactivated horse serum (Gibco BRL). The cytopathic NADL strain of bovine viral diarrhoea virus (BVDV) (kindly provided by Dr. Ruben Donis, University of Nebraska) stock was prepared as previously described.^viii For antiviral activity testing MDBK cells were plated into 24 well plates 24 hours before virus infection. Cells were infected with BVDV at moi=0.5 for 1 hour in 100 μL media with occasional rocking of the plate. The inocula were washed twice with media and regular media were added with 100 μM of the test compound. After 24 hours, the supernatant media were saved. Secreted viruses in the media were titred on new MDBK cells by standard plaque assay. Toxicity of the compounds was determined by examining the tissue culture cells after the 24 hour treatment.

As to `CCCCCNC(=O)C1NCC2OC(C)(C)OC21` (stereo not drawn) [compound 11, 2,3-trans-2-(1-Pentylcarbamoyl)-3,4-cis-O-isopropylidene-pyrrolidine], in assay [1], the IC50 (as a rule, the concentration at which inhibition is half-maximal) turned out to be 140 µM. With `CCCCCCCCCN1C[C@H](O)[C@@H](O)[C@H](O)[C@H]1CO` [NN-DNJ], in assay [2], the IC50 was 10 µM. As to “1-Butyl-2,3-trans-2-(1-pentylcarbamoyl)-3,4-cis-O-isopropylidene-pyrrolidine [compound 10]”, in assay [1], the IC50 stood at 117 µM.

Consider `CCCC(C)NC(=O)C1[C@H](O)[C@@H](O)CN1C(=O)c1cccc(N(C)C)c1` (stereo partly shown) [9viiG], for which the IC50 in assay [3] amounted to 30 µM.

`CC(C)NC(=O)C1[C@H](O)[C@@H](O)CN1C(=O)c1ccoc1` (stereo partly shown) [9viiiF]: the IC50 in assay [3] came to 30 µM. Turning to `CCCCN1C[C@H](O)[C@@H](O)[C@H](O)[C@H]1CO` [NB-DNJ], the IC50 in assay [2] is 125 µM.

For the compound `CC(C)(C)CC(C)(C)NC(=O)C1[C@H](O)[C@@H](O)CN1C(=O)c1ccccc1` (stereo partly shown) [9iiA], in assay [3], the IC50 worked out at 25 µM.
